Assay results: patent publication US8034904B2, “Anti-IGF-I receptor antibody” (Immunogen Inc., priority 2002, dated 2011)
Values belong to the molecule of their own block, whether it stands above or below them.

Tests used:
[1] = Bhuyan et al., 1982; cited from earlier work
[2] = test system: Human non-small cell lung cancer Calu-6 xenografts; assay type: in vivo; conditions: established 100 mm^3 Calu-6 xenografts; EM164 0.8 mg/mouse i.v. x6; taxol 15 mg/kg i.p. x5
Text: Human non-small cell lung cancer Calu-6 xenografts were established in immunodeficient mice by subcutaneous injections of 1×10^7 Calu-6 cells.

[3] = test system: multiple myeloma; conditions: previously untreated stages I or II myeloma; cited from earlier work
[4] = test system: NCI-H838 (lung) cells; test: Growth and survival of NCI-H838 cells (MTT assay); assay type: cell-based, human; conditions: NCI-H838 (lung); 10 ng/mL IGF-I, 3- to 4-day
Description: (§1) Several human tumor cell lines were tested in serum-free conditions for their growth and survival response to IGF-I. These cell lines were treated with EM164 antibody in the presence of IGF-I, IGF-II, or serum, and their growth and survival responses were measured using an MTT assay after 2-4 days. Approximately 1500 cells were plated in a 96-well plate in regular medium with serum, which was replaced with serum-free medium the following day (either serum-free RPMI medium supplemented with transferrin and BSA, or phenol-red free medium as specified by Dufourny, B. et al., 1997, J. Biol. Chem., 272, 31163-31171). After one day of growth in serum-free medium, the cells were incubated with about 75 μL of 10 μg/mL antibody for 30 min.-3 h, followed by the addition of 25 μL of IGF-I (or IGF-II or serum) solution to obtain a final concentration of 10 ng/mL IGF-I, or 20 ng/mL IGF-II, or 0.04-10% serum. In some experiments, the cells were stimulated first with IGF-I for 15 min before the addition of EM164 antibody, or both IGF-I and EM164 antibody were added together. The cells were then allowed to grow for another 2-3 days. A solution of MTT (3-(4,5)-dimethylthiazol-2-yl)-2,5-diphenyltetrazolium bromide; 25 μL of a 5 mg/mL solution in PBS) was then added and the cells were returned to the incubator for 2-3 h. The medium was then removed and replaced by 100 μL DMSO, mixed, and the absorbance of the plate was measured at 545 nm.

[5] = test system: HT-29 colon cancer cells; test: Growth and survival of HT-29 cells (MTT assay, colony formation); assay type: cell-based, human; conditions: HT-29; 10 ng/mL IGF-I, 3- to 4-day
Description: as §1

[6] = test system: HT-3 (cervical) cells; test: Growth and survival of HT-3 cells (MTT assay); assay type: cell-based, human; conditions: 10 ng/mL IGF-I, 3- to 4-day
Description: as §1, with “A solution of MTT (3-(4,5)-dimethylthiazol-2-yl)-2,5-diphenyltetrazolium bromide; 25 μL of a 5 mg/mL solution in PBS) was then added and the cells were returned to the incubator for 2-3 h.” left out

[7] = test system: A 375 (melanoma) cells; test: Growth and survival of A 375 cells (MTT assay); assay type: cell-based, human; conditions: 10 ng/mL IGF-I, 3- to 4-day
Description: as §1

[8] = test system: SK-Mel-37 cells; test: Growth and survival of SK-Mel-37 cells (MTT assay); assay type: cell-based, human; conditions: 10 ng/mL IGF-I, 3- to 4-day
Description: as §1, with “A solution of MTT (3-(4,5)-dimethylthiazol-2-yl)-2,5-diphenyltetrazolium bromide; 25 μL of a 5 mg/mL solution in PBS) was then added and the cells were returned to the incubator for 2-3 h.” left out

[9] = test system: Colo 205 (colon) cells; test: Growth and survival of Colo 205 cells (MTT assay); assay type: cell-based, human; conditions: 10 ng/mL IGF-I, 3- to 4-day
Description: as §1

[10] = test system: MCF-7 cells; test: Cell cycle analysis of MCF-7 cells (propidium iodide, flow cytometry); assay type: cell-based, human; conditions: IGF-I 20 ng/mL with or without EM164 20 μg/mL, 1 day
Description: The EM164 antibody caused growth arrest of cells in G0/G1 phase of cell cycle and abrogated the mitogenic effect of IGF-I. For cell cycle analysis, MCF-7 cells were treated with IGF-I (20 ng/mL) in the presence or absence of EM164 (20 μg/mL) for 1 day and then analyzed by propidium iodide staining and flow cytometry.

[11] = test system: MCF-7 (breast) cells; test: Growth and survival of MCF-7 cells (MTT assay); assay type: cell-based, human
Description: as §1

[12] = test system: SK-N-SH (neuroblastoma) cells; test: Growth and survival of SK-N-SH cells (MTT assay); assay type: cell-based, human; conditions: 10 ng/mL IGF-I, 3- to 4-day
Description: as §1

[13] = test system: A 549 cells; test: Growth and survival of A 549 cells (MTT assay); assay type: cell-based, human; conditions: 10 ng/mL IGF-I, 3- to 4-day
Description: as §1, with “A solution of MTT (3-(4,5)-dimethylthiazol-2-yl)-2,5-diphenyltetrazolium bromide; 25 μL of a 5 mg/mL solution in PBS) was then added and the cells were returned to the incubator for 2-3 h.” left out

[14] = test system: A 431 (epidermoid) cells; test: Growth and survival of A 431 cells (MTT assay); assay type: cell-based, human; conditions: 10 ng/mL IGF-I, 3- to 4-day
Description: as §1

[15] = test system: SaOS-2 (osteosarcoma) cells; test: Growth and survival of SaOS-2 cells (MTT assay); assay type: cell-based, human; conditions: 10 ng/mL IGF-I, 3- to 4-day
Description: as §1

[16] = test system: SK-LU-1 cells; test: Growth and survival of SK-LU-1 cells (MTT assay); assay type: cell-based, human; conditions: 10 ng/mL IGF-I, 3- to 4-day
Description: as §1

[17] = test system: Calu-6 non-small cell lung cancer cells; test: Growth and survival of Calu-6 cells (MTT assay); assay type: cell-based, human; conditions: 10 ng/mL IGF-I, 3- to 4-day
Description: as §1

[18] = test system: RD (rhabdomyocarcoma) cells; test: Growth and survival of RD cells (MTT assay); assay type: cell-based, human; conditions: 10 ng/mL IGF-I, 3- to 4-day
Description: as §1

[19] = test system: NCI-H596 cells; test: Growth and survival of NCI-H596 cells (MTT assay); assay type: cell-based, human; conditions: 10 ng/mL IGF-I, 3- to 4-day
Description: as §1

[20] = test system: biotinylated full-length human IGF-I receptor; test: ELISA binding competition of humanized/chimeric versus murine EM164
biotinylated full-length human IGF-I receptor, sequence (P08069 31-498 limits assumed): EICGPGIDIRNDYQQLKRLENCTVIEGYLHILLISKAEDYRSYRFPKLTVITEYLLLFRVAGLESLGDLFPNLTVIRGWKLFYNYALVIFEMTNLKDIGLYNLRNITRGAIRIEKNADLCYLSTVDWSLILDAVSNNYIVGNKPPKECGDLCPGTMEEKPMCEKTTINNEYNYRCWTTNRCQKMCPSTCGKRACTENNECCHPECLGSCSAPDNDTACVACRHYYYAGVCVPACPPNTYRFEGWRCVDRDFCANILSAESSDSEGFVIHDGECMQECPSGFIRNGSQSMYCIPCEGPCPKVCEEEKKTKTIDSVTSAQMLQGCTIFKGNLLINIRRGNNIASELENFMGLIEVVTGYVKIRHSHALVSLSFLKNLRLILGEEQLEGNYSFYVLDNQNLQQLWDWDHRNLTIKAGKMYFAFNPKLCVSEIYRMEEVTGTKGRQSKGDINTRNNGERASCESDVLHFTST
Description: The affinities of the humanized EM164 antibody versions 1.0-1.3 were compared to those of murine EM164 antibody through binding competition assays using biotinylated full-length human IGF-I receptor or myc-epitope tagged truncated IGF-I receptor alpha chain, as described above. Humanized EM164 antibody samples were obtained by transient transfection of the appropriate expression vectors in human embryonic kidney 293T cells, and antibody concentrations were determined by ELISA using purified humanized antibody standards. For ELISA binding competition measurements, mixtures of humanized antibody samples and various concentrations of murine EM164 antibody were incubated with indirectly captured biotinylated full-length IGF-I receptor or myc-epitope tagged truncated IGF-I receptor alpha chain. After equilibration, the bound humanized antibody was detected using a goat-anti-human-Fab′2-antibody-horseradish peroxidase conjugate. Plots of ([bound murine Ab]/[bound humanized Ab]) vs ([murine Ab]/[humanized Ab]), which theoretically yield a straight line with slope=(Kd humanized Ab/Kd murine Ab), were used to determine the relative affinities of the humanized and murine antibodies.
An Immulon-2HB ELISA plate was coated with 100 μL of 5 μg/mL streptavidin per well in carbonate buffer at ambient temperature for 7 h. […] The wells were then washed with TBS-T buffer and incubated with goat-anti-human-Fab′2-antibody-horseradish peroxidase conjugate for 1 h (100 μL; 1 μg/mL in blocking buffer), followed by washes and detection using ABTS/H2O2 substrate at 405 nm.

[21] = target: biotinylated human IGF-I receptor; test: ELISA binding titration (Kd) with biotinylated IGF-I receptor; conditions: ELISA titration, non-linear regression for one-site binding; read-out: dissociation constant (Kd)
biotinylated human IGF-I receptor, sequence (P08069 31-736 limits assumed): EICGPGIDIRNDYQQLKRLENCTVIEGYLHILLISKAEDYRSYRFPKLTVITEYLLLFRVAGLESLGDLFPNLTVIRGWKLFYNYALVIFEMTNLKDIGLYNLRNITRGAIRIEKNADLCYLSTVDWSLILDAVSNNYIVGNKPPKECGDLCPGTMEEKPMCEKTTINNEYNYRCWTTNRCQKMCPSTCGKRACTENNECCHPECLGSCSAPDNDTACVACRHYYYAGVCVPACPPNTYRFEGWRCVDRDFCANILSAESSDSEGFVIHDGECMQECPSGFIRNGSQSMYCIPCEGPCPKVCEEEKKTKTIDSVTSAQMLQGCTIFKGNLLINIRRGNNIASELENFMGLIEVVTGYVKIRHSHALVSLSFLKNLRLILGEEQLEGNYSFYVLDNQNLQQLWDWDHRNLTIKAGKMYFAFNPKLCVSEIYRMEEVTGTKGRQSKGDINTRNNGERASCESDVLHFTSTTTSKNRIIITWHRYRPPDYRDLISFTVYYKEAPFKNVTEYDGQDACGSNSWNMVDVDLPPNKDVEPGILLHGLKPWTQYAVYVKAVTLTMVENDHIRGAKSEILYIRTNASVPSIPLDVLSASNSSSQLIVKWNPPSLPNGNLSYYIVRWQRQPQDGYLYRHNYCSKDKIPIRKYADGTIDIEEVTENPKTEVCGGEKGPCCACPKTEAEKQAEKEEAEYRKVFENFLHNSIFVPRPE
biotinylated human IGF-I receptor, sequence (P08069 741-935 limits assumed): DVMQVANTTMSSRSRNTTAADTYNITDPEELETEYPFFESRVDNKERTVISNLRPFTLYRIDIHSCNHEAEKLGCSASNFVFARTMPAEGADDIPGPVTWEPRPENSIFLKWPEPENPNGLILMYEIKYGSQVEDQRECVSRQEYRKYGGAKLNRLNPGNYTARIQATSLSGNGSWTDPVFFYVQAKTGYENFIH
Description: The wells were next washed with TBS-T buffer and incubated with goat-anti-mouse-IgGH+L-antibody-horseradish peroxidase conjugate (100 μL; 0.5 μg/mL in blocking buffer), followed by washes and detection using ABTS/H2O2 substrate at 405 nm. The value of Kd was estimated by non-linear regression for one-site binding.
A similar binding titration was carried out using the Fab fragment of EM164 antibody, prepared by papain digestion of the antibody as described by E. Harlow and D. Lane (“Using Antibodies: A Laboratory Manual”; 1999, Cold Spring Harbor Laboratory Press, New York).

Molecule: COc1c(O)c2c(c3cc(C(=O)N4CCc5c4c(O)c(OC)c4[nH]c(C(=O)N6CC7CC78C6=CC(=O)c6[nH]cc(C)c68)cc54)[nH]c13)CCN2C(N)=O (stereo not shown) [CC-1065]
- potency in vitro relative to doxorubicin, methotrexate and vincristine [1]: about 1000 fold

Molecule: CC(=O)O[C@H]1C(=O)[C@@]2(C)[C@H]([C@H](OC(=O)c3ccccc3)[C@]3(O)C[C@H](OC(=O)[C@H](O)[C@@H](NC(=O)c4ccccc4)c4ccccc4)C(C)=C1C3(C)C)[C@]1(OC(C)=O)CO[C@@H]1C[C@@H]2O [taxol, reference compound]
- growth of tumors [2]: effective until day 14

Molecule: IFN-α
- patients who responded to treatment [3]: 7 of 14

Molecule: IGF-I: insulin-like growth factor-I, ligand of the IGF-I receptor used as growth stimulant [reference compound]
- Fold growth response to IGF-I (MTT assay: ratio for IGF-I treated vs untreated cells in serum-free medium) [4]: 3
- Fold growth response to IGF-I (MTT assay: ratio for IGF-I treated vs untreated cells in serum-free medium) [5]: 1.5
- Fold growth response to IGF-I (MTT assay: ratio for IGF-I treated vs untreated cells in serum-free medium) [6]: 2
- Fold growth response to IGF-I (MTT assay: ratio for IGF-I treated vs untreated cells in serum-free medium) [7]: 1.6
- Fold growth response to IGF-I (MTT assay: ratio for IGF-I treated vs untreated cells in serum-free medium) [8]: 1.4
- Fold growth response to IGF-I (MTT assay: ratio for IGF-I treated vs untreated cells in serum-free medium) [9]: 2.3
- cells in the G0/G1 phase [10]: 50%
- cells in the S phase [10]: 41%
- Fold growth response to IGF-I (MTT assay: ratio for IGF-I treated vs untreated cells in serum-free medium) ([11]; MCF-7 (breast), 10 ng/mL IGF-I, 3- to 4-day): 1.7-2.8
- Fold growth response to IGF-I (MTT assay: ratio for IGF-I treated vs untreated cells in serum-free medium) [12]: 2
- Fold growth response to IGF-I (MTT assay: ratio for IGF-I treated vs untreated cells in serum-free medium) [13]: 1.2
- Fold growth response to IGF-I (MTT assay: ratio for IGF-I treated vs untreated cells in serum-free medium) [14]: 2.2
- Fold growth response to IGF-I (MTT assay: ratio for IGF-I treated vs untreated cells in serum-free medium) [15]: 2.5
- Fold growth response to IGF-I (MTT assay: ratio for IGF-I treated vs untreated cells in serum-free medium) [16]: 1.4
- Fold growth response to IGF-I (MTT assay: ratio for IGF-I treated vs untreated cells in serum-free medium) [17]: 1.6-1.8
- Fold growth response to IGF-I (MTT assay: ratio for IGF-I treated vs untreated cells in serum-free medium) [18]: 1.7
- Fold growth response to IGF-I (MTT assay: ratio for IGF-I treated vs untreated cells in serum-free medium) [19]: 1.4

- lower affinity than murine EM164 antibody for binding to IGF-I receptor [20]: 3 fold
- slope in binding competition with murine EM164 antibody ([20]; similar binding competition): about 3
B1: chimeric version of EM164 antibody with 92F→C mutation: chimeric version of EM164 antibody with 92F→C mutation in heavy chain (antibody, V domains shown)
VH: QVQLQQSGAELVKPGASVKLSCKASGYTFTSYWMHWVKQRPGQGLEWIGEINPSNGRTNYNEKFKRKATLTVDKSSSTAYMQLSSLTSEDSAVYYCARGRPDYYGSSKWYFDVWGAGTTVTVSS
VL: DVLMTQTPLSLPVSLGDQASISCRSSQSIVHSNVNTYLEWYLQKPGQSPKLLIYKVSNRFSGVPDRFSGSGSGTDFTLRISRVEAEDLGIYYCFQGSHVPPTFGGGTKLEIK

- Kd [21]: 300 pM
B2: Fab fragment of EM164 antibody: Fab fragment of EM164 antibody, prepared by papain digestion (antibody, V domains shown)
VH: QVQLQQSGAELVKPGASVKLSCKASGYTFTSYWMHWVKQRPGQGLEWIGEINPSNGRTNYNEKFKRKATLTVDKSSSTAYMQLSSLTSEDSAVYYFARGRPDYYGSSKWYFDVWGAGTTVTVS
VL: DVLMTQTPLSLPVSLGDQASISCRSSQSIVHSNVNTYLEWYLQKPGQSPKLLIYKVSNRFSGVPDRFSGSGSGTDFTLRISRVEAEDLGIYYCFQGSHVPPTFGGGTKLEIKR

- slope (=Kd humanized Ab / Kd murine Ab) ([20]; biotinylated IGF-I receptor, FIG. 11, r^2=0.996): 0.52
B3: humanized EM164 v1.0: resurfaced EM164 with all 10 human surface residues (light chain aa3 V, aa45 R) (antibody, V domains shown)
VH: QVQLVQSGAEVVKPGASVKLSCKASGYTFTSYWMHWVKQRPGQGLEWIGEINPSNGRTNYNQKFQGKATLTVDKSSSTAYMQLSSLTSEDSAVYYFARGRPDYYGSSKWYFDVWGQGTTVTVS
VL: DVVMTQTPLSLPVSLGDPASISCRSSQSIVHSNVNTYLEWYLQKPGQSPRLLIYKVSNRFSGVPDRFSGSGAGTDFTLRISRVEAEDLGIYYCFQGSHVPPTFGGGTKLEIKR
- inhibition of serum-stimulated growth and survival of MCF-7 cells, compared with murine EM164 [11]: similar
